Legend:
[1] = tested on: Mouse peritoneal macrophages; assay: Mouse Macrophage Assay (leukotriene C4 / PGE2 / 6-keto PGF1α formation, zymosan stimulated); assay type: cell-based; settings: at 0.05 mg/ml, read-out: Macrophage, % at stated concentration
Description: Mouse peritoneal macrophages were treated sequentially with arachidonic acid (labelled with tritium); the compound being evaluated as an inhibitor, and a stimulator (zymosan). Metabolites derived from arachidonic acid PGE2 6-keto PH-F1α and leukotriene C4) were separated from the incubation medium by extraction and chromatography, and then quantitated by determining the amount of radioactivity (cpm) associated with each of them. […] (This protocol is identical to that described in the reference except that the radioactivity herein associated with the LTC4 was determined by counting an aliquot of the final aqueous solution directly rather than chromatographing it first).
Reference: Humes, J. L. et al., J. Biol. Chem. 257, 1591-4, (1982).

[2] = tested on: tracheal chain of sensitized guinea pigs; assay: Antigen Challenge 'in vitro' Assay (egg albumin contraction of sensitized guinea pig tracheal chain); settings: Table 4
[3] = tested on: tracheal chain of sensitized guinea pigs; assay: as above; settings: 10 μg (μg/ml)
Description: Male guinea pigs weighing 300-350 g were sensitized by injecting (I.P.) 0.5 ml of a suspension containing 0.4 mg of egg albumin (Ovalbumin, Grade V, Sigma Chemical Co.) and 4.0 g aluminum hydroxide in 19.6 ml of saline. Two weeks were permitted for sensitization to occur.
Three sensitized guinea pigs were stunned and exsanguinated. The tracheas were removed, freed of adhering tissue and divided longitudinally by cutting through the cartilaginous tissue directly opposite the muscle insertion. Each opened trachea was then transected between every second cartilage. Four of the cut sections were tied together, end to end, in a series with No. 7 silk thread ensuring that the tracheal muscles were all in the same vertical plane. Thus, each chain consisted of tissue from three different animals.
The chain so formed was then suspended under 1 g of tension (by silk ties at each end) in a 20 ml organ bath containing 10 ml of modified* Krebs-Henseleit buffer solution gassed with 95% O2 and 5% CO2 at 37° C. Mepyramine (0.55 μg/ml) and indomethacin (2.67 μg/ml) were added to the buffer to avoid the contribution of histamine receptors and cyclooxygenase products to the contraction. To record responses one end of the tracheal chain was attached to a Gould-Statham UC-2 force displacement transducer which was connected to a Beckman Type R-dynograph.The preparations were allowed to equilibrate for one hour during which time the tissues were automatically washed (10 ml volume displacement) every 6 minutes.
After the equilibration period the tissues were primed with methacholine (3 μg/ml; 1.5×10^-5 M), washed and allowed to recover to baseline. The tissues were treated again with a second dose of methacholine, washed, allowed to return to baseline and washed for an additional hour.
Two chains were used as a control. These were incubated in a concentration of egg albumin sufficient to induce an average contraction of 50-80% of the methacholine response.
Each compound to be tested was added to two other baths (at a final concentration in each bath of 10 μg/ml) 15 minutes prior to challenging the fresh chains with egg albumin.
The response of the challenged tissue was expressed as a percentage of the methacholine maximum. The % inhibition for each compound was then calculated. Compounds which at 10 μg/ml (final conc.) inhibited the egg albumin response by 50% or more were retested at a lower concentration.

[4] = tested on: asthmatic rats; assay: Asthmatic Rat Assay (duration of dyspnoea after egg albumin aerosol); assay type: in vivo; settings: for ED50: Rattus norvegicus; for % inhibition (Ed50 column): p.o.
From the text: Rats were obtained from an inbred line of asthmatic rats. Both female and male rats from 200 to 300 g were used.
Egg albumin (EA), grade V, crystallized and lyophilized, was obtained from Sigma Chemical Co., St. Louis. Bordetella pertussis vaccine, containing 30×10^9 killed bacteria per ml was obtained from the Institut Armand-Frappier, Laval des Rapides, Quebec. Aluminum hydroxide was obtained from the Regis Chemical Company, Chicago.
The challenge and subsequent respiratory recordings were carried out in a clear plastic box with internal dimensions 10×6×4 inches. The top of the box was removable; in use, it was held firmly in place by four clamps and an airtight seal was maintained by a soft rubber gasket. […] A Fleisch No. 0000 pneumotachograph was inserted into one end of the box and coupled to a Grass volumetric pressure transducer (PT5-A) which was then connected to a Beckman Type T Dynograph through appropriate couplers. While aerosolizing the antigen, the outlets were open and the pneumotachograph was isolated from the chamber. The outlets were closed and the pneumotachograph and the chamber were connected during the recording or the respiratory patterns. For challenge, 2 ml of a 3% solution of antigen in saline was placed into each nebulizer and the aerosol was generated with air from a small Potter diaphragm pump operating at 10 psi and a flow of 8 liters/minute.
Rats were sensitized by injecting (s.c.) 1 ml of a suspension containing 1 mg EA and 200 mg aluminum hydroxide in saline. Simultaneously, they received an injection (i.p.) of 0.5 ml of B. pertussis vaccine. They were used between days 14 and 18 postsensitization. In order to eliminate the serotonin component of the response, rats were pretreated intravenously 5 minutes prior to aerosol challenge with […] methylserzide. Rats were then exposed to an aerosol of 3% EA in saline for exactly 1 minute, then their respiratory profiles were recorded for a further 25-30 minutes. The duration of continuous dyspnoea was measured from the respiratory recordings.
Compounds were generally administered either intraperitoneally 1 hour prior to challenge or orally 11/2 hours prior to challenge. They were either dissolved in dimethylsulfoxide or suspended in 0.1% methocel and 0.5% Tween 80. The volume injected has 2 ml/kg (intraperitoneally) or 10 ml/kg (orally). Prior to oral treatment rats were starved overnight. Their activity was determined in terms of their ability to decrease the duration of symptoms of dyspnoea in comparison with a group of vehicle-treated controls. Usually, a compound was evaluated at a series of doses and an ED50 was determined. This was defined as the dose (mg/kg) which would inhibit the duration of symptoms by 50%.

[5] = tested on: rat paw, Brewer's yeast hyperalgesia; assay: Brewer's Yeast Hyperalgesia Assay; assay type: in vivo, Female Sprague-Dawley rats; settings: for Vocalization Threshold: mean, n = 10
Description: The standard method* for yeast hyperalgesia was used. Female Sprague-Dawleyrats, […] were fasted overnight. A 5% solution (volume 0.1 ml) of Brewer's yeast was injected into the rat paw. The compound was homogenized in aqueous vehicle and given orally 2 hours after yeast. Vocalization thresholds were recorded 1 hours after drug (3 hours after yeast).
^a mmHg: mean ± S.E.M. n = 10

[6] = tested on: rat paw, PAF-induced hyperalgesia; assay: PAF-Induced Hyperalgesia Assay; assay type: in vivo, Female Sprague-Dawley rats; settings: for Vocalization Threshold: 3 hr after PAF, Mean ± S.E.M., n = 10
Description: Female Sprague-Dawley rats, 35-40 g were fasted overnight. Platelet activating factor, PAF, (L-lecithin B-acetyl O-alkyl) 1 μg/0.1 ml was given by subplantar injection in the rat paw. The compounds to be evaluated were homogenized in Aqueous Vehicle (0.9% benzyl alcohol, 0.5% Tween 80 and 0.4% methylcellulose) and administered orally in a volume of 0.1 ml, 30 minutes prior to PAF.
Animals were tested 1, 2, 3 and 4 hours after PAF administration. The vocalization threshold, defined as the pressure (mmHg) needed to evoke a squeak response, was recorded for both the injected and contralateral paw. No animal was subjected to pressure greater than 60 mmHg. Hyperalgesia is defined as a decrease in vocalization threshold as compared to a normal paw. Percent inhibition of hyperalgesia was calculated as the proportion of animals with vocalization thresholds greater than 200% of controls.
^a mmHg Mean ± S.E.M., n = 10 Reading taken 3 hr after injection o
PAF, (3.5 hr. after administration of compound).

Molecule: Cc1cc2nc3ccc(N(C)C)cc3sc-2cc1=N
- inhibition at 50 µg/mL [1]: 10%
- In Vitro Antigen Challenge Test % Inhibition ([2]; 10 mg (mg/ml)): 24%

Molecule: 4-Chloro-2,7-dimethoxy-3H-phenothiazin-3-one [Example 3]
- In Vitro Antigen Challenge Test % Inhibition [3]: 25%

Molecule: 4-Chloro-2,7-dimethyl-3H-phenothiazin-3-one [Example 5]
- In Vitro Antigen Challenge Test % Inhibition [3]: 45%

Molecule: 4-Chloro-7-methyl-3H-phenothiazin-3-one [Example 7]
- In Vitro Antigen Challenge Test % Inhibition ([2]; 10 mg (mg/ml)): 37%

Molecule: 7-Fluoro-2-methoxy-3H-phenothiazin-3-one [Example 13]
- In Vitro Antigen Challenge Test % Inhibition ([2]; 3 mg (mg/ml)): 54%

Molecule: 7-Fluoro-3H-phenothiazin-3-oone [Example 11]
- In Vitro Antigen Challenge Test % Inhibition ([2]; 3 mg (mg/ml)): 23%

Molecule: O=c1ccc2nc3ccccc3sc-2c1Cl [B]
- ED50 ([4]; po): 1.5 mg/kg

Molecule: O=c1ccc2nc3ccccc3sc-2c1 [C]
- ED50 ([4]; ip): ~5 mg/kg

Molecule: COc1ccc2nc3cc(OC)c(=O)c(Br)c-3sc2c1 [D]
- ED50 ([4]; po): 1 mg/kg

Molecule: O=C1C=CC2=Nc3ccccc3S(=O)(=O)C2=C1O [E]
- % inhibition (Ed50 column) ([4]; at 1.5 mg/kg): 37%

Molecule: O=c1ccc2nc3ccccc3sc-2c1Cl [Example 2, 4-Chloro-3H-phenothiazin-3-one]
- % Inhibition ([5]; 0.3 mg/kg p.o.): 30%
- Vocalization Threshold ([5]; 0.3 mg/kg p.o.): 17.6 mmHg
- % Inhibition ([5]; 1.0 mg/kg p.o.): 30%
- Vocalization Threshold ([5]; 1.0 mg/kg p.o.): 19.4 mmHg
- % Inhibition ([5]; 3.0 mg/kg p.o.): 60%
- Vocalization Threshold ([5]; 3.0 mg/kg p.o.): 30.0 mmHg
- % Inhibition ([5]; 10.0 mg/kg p.o.): 70%
- Vocalization Threshold ([5]; 10.0 mg/kg p.o.): 28.6 mmHg
- % Inhibition ([5]; 30.0 mg/kg p.o.): 80%
- Vocalization Threshold ([5]; 30.0 mg/kg p.o.): 32.6 mmHg
- % Inhibition ([6]; Experiment 1, 0.01 mg/kg p.o.): 40%
- Vocalization Threshold ([6]; Experiment 1, 0.01 mg/kg p.o.): 28.2 ± 5.2 mmHg
- % Inhibition ([6]; Experiment 1, 0.03 mg/kg p.o.): 80%
- Vocalization Threshold ([6]; Experiment 1, 0.03 mg/kg p.o.): 40.2 ± 5.0 mmHg
- % Inhibition ([6]; Experiment 1, 0.1 mg/kg p.o.): 80%
- Vocalization Threshold ([6]; Experiment 1, 0.1 mg/kg p.o.): 37.4 ± 3.9 mmHg
- % Inhibition ([6]; Experiment 1, 0.3 mg/kg p.o.): 90%
- Vocalization Threshold ([6]; Experiment 1, 0.3 mg/kg p.o.): 45.4 ± 3.7 mmHg
- % Inhibition ([6]; Experiment 1, 3.0 mg/kg p.o.): 100%
- Vocalization Threshold ([6]; Experiment 1, 3.0 mg/kg p.o.): 46.0 ± 3.0 mmHg
- % Inhibition ([6]; Experiment 2, 0.001 mg/kg p.o.): 0%
- Vocalization Threshold ([6]; Experiment 2, 0.001 mg/kg p.o.): 10.0 ± 1.6 mmHg
- % Inhibition ([6]; Experiment 2, 0.003 mg/kg p.o.): 30%
- Vocalization Threshold ([6]; Experiment 2, 0.003 mg/kg p.o.): 16.4 ± 2.8 mmHg
- % Inhibition ([6]; Experiment 2, 0.01 mg/kg p.o.): 30%
- Vocalization Threshold ([6]; Experiment 2, 0.01 mg/kg p.o.): 18.0 ± 2.9 mmHg
- % Inhibition ([6]; Experiment 2, 0.1 mg/kg p.o.): 60%
- Vocalization Threshold ([6]; Experiment 2, 0.1 mg/kg p.o.): 29.6 ± 4.4 mmHg

Molecule: O=c1cc2sc3ccccc3nc-2c2ccccc12 [F]
- % inhibition (Ed50 column) ([4]; at 5 mg/kg): 36%

Molecule: O=c1ccc2nc3ccccc3sc-2c1Cl [drawing 40]
- ED50 ([4]; ip): 0.5 mg/kg
